Test results published in patent US20030073731A1, “Compositions and methods of the use thereof achiral analogues of CC-1065 and the duocarmycins” (priority 2000, published 2003).
Where two headings read alike, the source gives them in different places.

Tests used:
MCF7 [1] = tested on: MCF7
MALME-3M = assay type: cell-based, human
OVCAR-5 = assay type: cell-based, human
SK-MEL-28 [2] = tested on: SK-MEL-28
MOLT-4 [3] = tested on: MOLT-4
plasmid pBR322 DNA = experiment: Taq polymerase stop assay; assay type: biochemical
CCRF-CEM [4] = tested on: CCRF-CEM
UO-31 [5] = tested on: UO-31
HT29 = experiment: cells; conditions: Homo sapiens
[6] = tested on: human colon adenocarcinoma cell line, LS 174T; experiment: cells; conditions: LS174T
Protocol: (§1) Cells were seeded in 96-well microtiter plates at densities of 1000 cells/well. The optimal seeding density was determined to ensure exponential growth in control wells throughout the experimental period and to obtain a linear relationship between absorbance at 492 nm and cell number when analyzed by the sulforhodamine B (SRB) assay (43). 24 hours after seeding the cells were incubated for 1 hour or continuously for 3 days with the drugs (concentration range 0.01 to 500 pM). The cells were washed once and then incubated in drug free medium for 6 days. At the end of the incubation cell growth was determined by the SRB assay, which quantifies viable cells by measuring their total cellular protein content. […] Similar studies were conducted against the growth of PC3 (human prostate cancer cells) and MCF-7 (human breast cancer cells).

CCRF-CEM [7] = experiment: cells; conditions: Homo sapiens
COLO 205 = experiment: NCI in-vitro cytotoxicity screen, Colon Cancer panel; assay type: cell-based; conditions: Homo sapiens
Protocol: (§2) The compounds of this invention were also tested against the panel of 60 human cancer cell lines at the National Cancer Institute, Bethesda, Md. […] The cytotoxicity studies were conducted using a 48 hour exposure, and measuring the optical density of sulforhodamine B-derived color.

HL-60 (TB) = experiment: NCI in-vitro cytotoxicity screen, Leukemia panel; assay type: cell-based, human
Protocol: as §2

SK-MEL-28 [8] = experiment: cells; conditions: Homo sapiens
MCF7 [9] = experiment: cells; conditions: Homo sapiens
[10] = tested on: MCF-7 (human breast cancer cells); experiment: cells; assay type: cell-based
Protocol: as §1

MOLT-4 [11] = experiment: cells; conditions: Homo sapiens
RPMI-8226 = experiment: cells; conditions: Homo sapiens
U251 = experiment: cells; conditions: Homo sapiens
UO-31 [12] = experiment: cells; conditions: Homo sapiens
A498 = experiment: NCI in-vitro cytotoxicity screen, Renal Cancer panel; assay type: cell-based; conditions: Homo sapiens
Protocol: as §2

SK-MEL-2 = experiment: cells; conditions: Homo sapiens
SNB-19 = experiment: cells; conditions: Homo sapiens

Question: Which results are given for “4-(2-Chloroethyl)-3-[5-(5-benzofuran-2-carboxamido)indole-2-carboxamido]phenol [Compound 1]”?
Answer: GI50 (HS 578T): 11.8 µM; TGI (HS 578T): 3.96E-06 Molar; GI50 (MCF7 [1]): 1.03 µM; TGI (MCF7 [1]): 2.27E-06 Molar; GI50 (HCT-15): 1.91 µM; TGI (HCT-15): 4.89E-06 Molar; GI50 (SK-OV-3): 2.93 µM; TGI (SK-OV-3): 7.66E-06 Molar; GI50 (CAKI-1): 2.3 µM; TGI (CAKI-1): 7.19E-06 Molar; GI50 (MALME-3M): 1.84 µM; TGI (MALME-3M): 3.56E-06 Molar; GI50 (OVCAR-5): 2.28 µM; TGI (OVCAR-5): 5.80E-06 Molar; GI50 (M14): 1.49 µM; TGI (M14): 3.19E-06 Molar; GI50 (OVCAR-8): 1.32 µM; TGI (OVCAR-8): 3.28E-06 Molar; GI50 (NCI-H23): 1.67 µM; TGI (NCI-H23): 3.38E-06 Molar; GI50 (SK-MEL-28 [2]): 2.4 µM; TGI (SK-MEL-28 [2]): 6.10E-06 Molar; GI50 (TK-10): 2.45 µM; TGI (TK-10): 5.85E-06 Molar; GI50 (KM12): 18.8 µM; TGI (KM12): 3.50E-05 Molar; GI50 (MOLT-4 [3]): 1.14 µM; GI50 (786-0): 2.62 µM; TGI (786-0): 1.07E-05 Molar; sequence selectivity compared with compound 27 (plasmid pBR322 DNA): stronger sequence selectivity than 27; GI50 (MDA-MB-231/ATCC): 2.43 µM; TGI (MDA-MB-231/ATCC): 7.10E-06 Molar; Percent Growth (MDA-MB-231/ATCC; Log10 Concentration (Molar) −4.0): −65%; Percent Growth (MDA-MB-231/ATCC; Log10 Concentration (Molar) −6.0): 92%; Percent Growth (MDA-MB-231/ATCC; Log10 Concentration (Molar) −7.0): 97%; Percent Growth (MDA-MB-231/ATCC; Log10 Concentration (Molar) −8.0): 94%; GI50 (CCRF-CEM [4]): 1.26 µM; TGI (CCRF-CEM [4]): 5.28E-06 Molar; GI50 (UO-31 [5]): 3 µM; TGI (UO-31 [5]): 6.38E-06 Molar; GI50 (SF-295): 2.32 µM; TGI (SF-295): 6.46E-06 Molar; GI50 (OVCAR-3): 2.13 µM; TGI (OVCAR-3): 4.69E-06 Molar; GI50 (NCI-H226): 4.09 µM; TGI (NCI-H226): 1.62E-05 Molar

Question: Which GI50 (HT29; HT-29) does the source give for COC(=O)c1[nH]c2c(O)cc(NC(=O)c3cc4cc(OC)c(OC)c(OC)c4[nH]3)c(CCCl)c2c1C(=O)OC [Compound 22, Dimethyl 4-(2-chloroethyl)-7-hydroxy-5-(5,6,7-trimethoxyindole-2-carboxamido)indole-2,3-dicarboxylate] here?
Answer: Its GI50 is 0.0681 µM.

Question: And the CC50 (HT29; HT-29, read-out: LC50)?
Answer: Its CC50 is 2.34 µM.

Question: And the IC50 [6]?
Answer: Its IC50 is 0.004 µM.

Question: And the IC50 ([6]; 1 h)?
Answer: Its IC50 is 1.86 µM.

Question: What about the GI50 (CCRF-CEM [7]) of the same compound?
Answer: Its GI50 is 0.0318 µM.

Question: What about the CC50 (CCRF-CEM [7]; read-out: LC50) of the same compound?
Answer: The CC50 was greater than 50 µM.

Question: And the GI50 (COLO 205; COLO 205)?
Answer: Its GI50 is 0.233 µM.

Question: And the CC50 (COLO 205; COLO 205, read-out: LC50)?
Answer: Its CC50 is greater than 50 µM.

Question: And the “Percent Growth” value (HL-60 (TB); HL-60 (TB), Log10 Concentration −4.3)?
Answer: The value was 3%.

Question: What about the “Percent Growth” value (HL-60 (TB); HL-60 (TB), Log10 Concentration −5.3) of the same compound?
Answer: Its value is 9%.

Question: And the CC50 (HL-60 (TB); Homo sapiens, HL-60, read-out: LC50)?
Answer: The CC50 was greater than 50 µM.

Question: And the GI50 (HL-60 (TB); Homo sapiens, HL-60 (TB))?
Answer: The GI50 was 0.0604 µM.

Question: And the GI50 (SK-MEL-28 [8]; SK-MEL-28)?
Answer: The GI50 was 0.172 µM.

Question: And the CC50 (SK-MEL-28 [8]; SK-MEL-28, read-out: LC50)?
Answer: Its CC50 is greater than 50 µM.

Question: And the GI50 (MCF7 [9]; MCF7)?
Answer: The GI50 was 0.0224 µM.

Question: What about the CC50 (MCF7 [9]; MCF7, read-out: LC50) of the same compound?
Answer: Its CC50 is 47.5 µM.

Question: What about the IC50 ([10]; MCF7, MCF-7, 1 hour exposure) of the same compound?
Answer: The IC50 was 0.97 µM.

Question: And the IC50 ([10]; MCF7, MCF-7, Continuous exposure)?
Answer: Its IC50 is 0.13 µM.

Question: What about the GI50 (MOLT-4 [11]; MOLT-4) of the same compound?
Answer: Its GI50 is 0.0105 µM.

Question: And the CC50 (MOLT-4 [11]; MOLT-4, read-out: LC50)?
Answer: The CC50 was greater than 50 µM.

Question: What about the GI50 (RPMI-8226; RPMI-8226) of the same compound?
Answer: The GI50 was 0.19 µM.

Question: What about the CC50 (RPMI-8226; RPMI-8226, read-out: LC50) of the same compound?
Answer: Its CC50 is greater than 50 µM.

Question: What about the GI50 (U251; U-251) of the same compound?
Answer: The GI50 was 0.12 µM.

Question: And the CC50 (U251; U-251, read-out: LC50)?
Answer: The CC50 was greater than 50 µM.

Question: And the GI50 (UO-31 [12]; UO-31)?
Answer: Its GI50 is 0.0988 µM.

Question: And the CC50 (UO-31 [12]; UO-31, read-out: LC50)?
Answer: The CC50 was greater than 50 µM.

Question: And the GI50 (A498; A498)?
Answer: Its GI50 is 0.164 µM.

Question: And the CC50 (A498; A498, read-out: LC50)?
Answer: The CC50 was 20.7 µM.

Question: And the GI50 (SK-MEL-2; SK-MEL-2)?
Answer: Its GI50 is 0.0839 µM.

Question: What about the CC50 (SK-MEL-2; SK-MEL-2, read-out: LC50) of the same compound?
Answer: The CC50 was 0.339 µM.

Question: What about the GI50 (SNB-19; SNB-19) of the same compound?
Answer: Its GI50 is 0.173 µM.

Question: And the CC50 (SNB-19; SNB-19, read-out: LC50)?
Answer: The CC50 was greater than 50 µM.
